In patent US6451839B1, “Indole sPLA2 inhibitors” (Eli Lilly and Company, priority 1998, dated 2002):

What follows are molecules tested against T1, recombinant human secreted phospholipase A2 (Homo sapiens, UniProt P14555) (assay: chromogenic assay of recombinant human secreted phospholipase A2 inhibition). Conditions: diheptanoyl thio-PC substrate, pH 7.5, 40° C. for 30 minutes, absorbance at 405 nanometers, triplicate; read-out: Inhibition of human secreted PLA2 IC50 ± mean deviation.
T1 sequence (P14555 21-144): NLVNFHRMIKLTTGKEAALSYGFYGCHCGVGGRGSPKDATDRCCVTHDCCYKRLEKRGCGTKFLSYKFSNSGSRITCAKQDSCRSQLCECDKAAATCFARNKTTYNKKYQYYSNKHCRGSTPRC
Format: biochemical
Excerpt: The following chromogenic assay procedure was used to identify and evaluate inhibitors of recombinant human secreted phospholipase A2. The assay described herein has been adapted for high volume screening using 96 well microtiter plates. A general description of this assay method is found in the article, “Analysis of Human Synovial Fluid Phospholipase A2 on Short Chain Phosphatidylcholine-Mixed Micelles: Development of a Spectrophotometric Assay Suitable for a Microtiterplate Reader”, by Laure J. Reynolds, Lori L. Hughes, and Edward A Dennis, Analytical Biochemistry, 204, pp. 190-197, 1992 (the disclosure of which is incorporated herein by reference):
RACEMIC DIHEPTANOYL THIO—PC
racemic 1,2-bis(heptanoylthio)-1,2-dideoxy-sn-glycero-3-phosphorylcholine
The reaction mixture thus obtained contains lmM diheptanoly thio-PC substrate, 0.29 mm Triton X-100™ detergent, and 0.12 mm DTMB in a buffered aqueous solution at pH 7.5.
1. Add 0.2 ml reaction mixture to all wells;
2. Add 10 ul test compound (or solvent blank) to appropriate wells, mix 20 seconds;
3. Add 50 nanograms of sPLA2 (10 microliters) to appropriate wells;
4. Incubate plate at 40° C. for 30 minutes;
5. Read absorbance of wells at 405 nanometers with an automatic plate reader.
All compounds were tested in triplicate. Typically, compounds were tested at a final concentration of 5 ug/ml. […] Lack of color development at 405 nanometers evidenced inhibition. Compounds initially found to be active were reassayed to confirm their activity and, if sufficiently active, IC50 values were determined. […] In all cases, % inhibition measured at 405 nanometers generated by enzyme reactions containing inhibitors relative to the uninhibited control reactions was determined. Each sample was titrated in triplicate and result values were averaged for plotting and calculation of IC50 values. IC50 were determined by plotting log concentration versus inhibition values in the range from 10-90% inhibition.

| Structure (SMILES) | IC50 [µM] |
| --- | --- |
| CCc1c(NC(N)=O)c2c(OCC(=O)O)cccc2n1Cc1ccccc1 [Example 1, [[2-Ethyl-1-(phenylmethyl)-3-ureido-1H-indol-4-yl]oxy]acetic acid] | 0.049 |
| CCc1c(NC(C)=O)c2c(OCC(=O)O)cccc2n1Cc1ccccc1 [Example 2, [[3-Acetamido-2-ethyl-1-(phenylmethyl)-1H-indol-4-yl]oxy]acetic acid] | 65 |
| CCc1c(NC(=O)C(F)(F)F)c2c(OCC(=O)O)cccc2n1Cc1ccccc1 [Example 3, [[3-trifluoroacetamido-2-ethyl-1-(phenylmethyl)-1H-indol-4-yl]oxy]acetic acid] | 51 |
| CCc1c(NC(=O)CBr)c2c(OCC(=O)O)cccc2n1Cc1ccccc1 [Example 4, [[3-(Bromo)acetamido-2-ethyl-1-(phenylmethyl)-1H-indol-4-yl]oxy]acetic acid] | 45 |
| CCc1c(NC(=O)C(N)=O)c2c(OCC(=O)O)cccc2n1Cc1ccccc1 [Example 6, [[2-ethyl-3-oxamide-1-(phenylmethyl)-1H-indol-4-yl]oxy]acetic acid] | 13 |
| CCc1c(NC(N)=O)c2c(OCC(=O)O)cccc2n1Cc1ccccc1Br [Example 8, [[2-ethyl-1-(2-bromo-phenylmethyl)-3-ureido-1H-indol-4-yl]oxy]acetic acid] | 0.074 |

More lines, in order of falling IC50, values ahead:

| IC50 [µM] | Structure (SMILES) |
| --- | --- |
| 6.8 | CCc1c(NC(N)=S)c2c(OCC(=O)O)cccc2n1Cc1ccccc1 [Example 5, [[2-Ethyl-1-(phenylmethyl)-3-thioureido-1H-indol-4-yl]oxy]acetic acid] |
| 0.021 | CCc1c(NC(N)=O)c2c(OCC(=O)O)cccc2n1Cc1ccccc1-c1ccccc1 [Example 7, [[2-ethyl-1-(2-phenyl-phenylmethyl)-3-ureido-1H-indol-4-yl]oxy]acetic acid] |
| 0.017 | CCc1c(NC(N)=O)c2c(OCC(=O)O)cccc2n1Cc1ccccc1-c1ccc(F)cc1 [Example 9, [[2-ethyl-1-(2-(4-fluorophenyl)-phenylmethyl)-3-ureido-1H-indol-4-yl]oxy]acetic acid] |
